Experimental findings from patent publication EP2455756A1, “Cell-based screening assay for inhibitors of NET formation” (Max-Planck-Gesellschaft zur Förderung der Wissenschaften …, priority 2010, dated 2012) are described below.

Assay [1] has as its system neutrophils. The experiment in a line: Nuclear area and nuclear morphology (perimeter vs. Heywood circularity factor) of activated neutrophils, Sytox Green staining, automated microscopy. Format: cell-based, Human. On the procedure: During NET formation there are discrete changes in nuclear size and shape. According to the invention four distinct nuclear morphologies were defined (Fig. 1) (i) lobulated, (ii) delobulated, (iii) diffused NETs and (iv) spread NETs. […] The nuclear morphology, i.e. the morphology of the nuclear DNA was analyzed in more detail by plotting the perimeter vs. the Heywood circularity factor.
In contrast, most nuclei of neutrophils activated for 240 min, had diffused nuclei, or spread NETs that could be measured by their large perimeter and low Heywood circularity factor (Fig. 3b).
For nuclear size and shape, neutrophils were activated with PMA for 240 min, fixed with PFA (2%), permeabilized with Triton X100 (0.1%) and stained with Sytox Green. The four distinct nuclear morphologies during the progression to NET formation are lobulated, delobulated or diffused NETs and spread NETs (Fig.1). Bar=10 µm
Neutrophils were activated with PMA (40nM). Fifteen min after activation the nuclei were homogenous and smaller than 100 µm^2 in area while the nuclei of activated neutrophils were heteregenous and between 150 and more than 350 µm^2 (Figs. 3). Each dot in Figs. 3 (Dot plot of nuclei analyzed for perimeter vs. Heywood circularity factor) represents a nucleus. Gates were set to distinguish between lobulated, delobulated, diffused NETs and spread NETs.
In Fig. 3a fifteen min after activation, more than 95% of the nuclei were either lobulated or delobulated. […] The images were generated by an automated microscopy system and analyzed by image analysis software Scan ^R.

The subject of assay [2] is neutrophils. The experiment in a line: Quantification of cell viability with Sytox Green, fluorometer. Format: cell-based, Human. Particulars: PMA (40 nM) for 240 min, Sytox Green (2µM). The procedure: Neutrophils were activated with PMA (40 nM) for 15 min and 240 min, stained with the vital dye Sytox Green (2µM) and analyzed with a fluorometer. […] Different numbers of neutrophils per well were plated and activated with PMA for 240 min or incubated with the non ionic detergent NP-40.

“Also recorded” adds a separate entry of the source.

As for `CCCCCCCCCCCCCC(=O)O[C@@H]1[C@@H](C)[C@@]2(O)[C@@H](C=C(CO)C[C@]3(O)C(=O)C(C)=C[C@@H]23)[C@@H]2C(C)(C)[C@]12OC(C)=O` [PMA, phorbol-12-myristate-13-acetate], the “nuclei either diffused or already made NETs” value with neutrophils [1] (240 min after activation with PMA (40nM)) is “more than 95%”. In the assay with neutrophils [1] (fifteen min after activation with PMA (40nM)), the “nuclei either lobulated or delobulated” value is reported as “more than 95%”. For the same compound, the “nuclear area (mean)” value in the assay on neutrophils [1] (neutrophils activated with PMA (40 nM) for 240 min, SD: 109µm^2, n: 2000) amounted to 244 µm^2. In addition, in the assay on neutrophils [2], the “cell death (Sytox Green fluorescence)” value is reported as “fluorescent, indicating cell death; also recorded: most cells die after activation”.
